Calls of active or inactive are those of the source.
Experiments:
[1] = biological target: Neurotensin receptor type 1 (Homo sapiens, UniProt P30989); format: functional;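 note: Image-based confirmatory dose-response assay measuring agonist activity at NTR1; NTR1-expressing U2OS osteosarcoma cells imaged for beta-arrestin GFP spot formation; agonist potency where compounds increase beta-arrestin recruitment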
[2] = biological target: T1, Alkaline phosphatase, tissue-nonspecific isozyme (Homo sapiens, UniProt P05186)
T1 sequence (P05186 whole entry): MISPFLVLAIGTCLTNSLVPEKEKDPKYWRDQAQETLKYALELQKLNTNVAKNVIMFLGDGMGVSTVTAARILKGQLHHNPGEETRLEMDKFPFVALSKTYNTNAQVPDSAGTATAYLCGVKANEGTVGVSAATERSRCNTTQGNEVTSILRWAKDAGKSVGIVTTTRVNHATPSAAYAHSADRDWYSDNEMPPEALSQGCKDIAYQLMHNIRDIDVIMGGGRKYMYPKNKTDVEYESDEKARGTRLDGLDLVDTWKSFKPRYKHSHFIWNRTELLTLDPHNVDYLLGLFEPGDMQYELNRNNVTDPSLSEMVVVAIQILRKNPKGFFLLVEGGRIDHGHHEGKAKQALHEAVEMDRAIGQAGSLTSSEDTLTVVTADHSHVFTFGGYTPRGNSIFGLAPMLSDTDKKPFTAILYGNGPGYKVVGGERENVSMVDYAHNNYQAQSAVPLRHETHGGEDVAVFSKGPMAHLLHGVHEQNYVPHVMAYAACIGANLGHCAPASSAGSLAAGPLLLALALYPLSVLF

[3] = biological target: Melanin-concentrating hormone receptor 1 (Homo sapiens, UniProt Q99705); assay: Fluorescence-based counterscreen for antagonists of the G-protein coupled receptor 7 (GPR7): cell-based high throughput dose response assay to identify antagonists of the melanin-concentrating hormone receptor 1 (MCHR1).; format: functional
[4] = biological target: RNA-editing ligase 1, mitochondrial (Trypanosoma brucei brucei, UniProt P86926); assay: TbREL1 ligase inhibitors, dose response, biochemical, fluorescence, Trypanosoma brucei (AID 1117295); format: functional
Mucolipin-3 [5] = biological target: T2, Mucolipin-3 (Homo sapiens, UniProt Q8TDD5); assay: TRPML3 and TRPML2 channel agonists, cell-based, patch clamp, Fura-2 profiling panel, panel member TRPML3 Dose Response (AID 2116)
T2 sequence (Q8TDD5 whole entry): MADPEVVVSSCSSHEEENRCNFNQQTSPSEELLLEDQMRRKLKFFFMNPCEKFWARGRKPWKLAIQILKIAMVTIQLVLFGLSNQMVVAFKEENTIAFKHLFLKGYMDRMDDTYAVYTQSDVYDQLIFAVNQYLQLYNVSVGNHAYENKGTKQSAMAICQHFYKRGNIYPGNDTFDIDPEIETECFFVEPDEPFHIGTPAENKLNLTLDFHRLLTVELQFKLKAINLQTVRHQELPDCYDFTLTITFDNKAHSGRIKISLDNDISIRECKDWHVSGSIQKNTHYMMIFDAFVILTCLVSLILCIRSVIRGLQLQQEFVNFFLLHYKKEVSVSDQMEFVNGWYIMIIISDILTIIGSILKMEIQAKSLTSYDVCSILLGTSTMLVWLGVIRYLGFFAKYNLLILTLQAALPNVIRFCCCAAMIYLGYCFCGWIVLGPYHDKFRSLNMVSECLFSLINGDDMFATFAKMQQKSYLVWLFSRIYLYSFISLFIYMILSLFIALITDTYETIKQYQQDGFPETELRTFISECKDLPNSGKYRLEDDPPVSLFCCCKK

Mucolipin-3 [6] = biological target: T2, Mucolipin-3; assay: Dose response cell-based high-throughput screening assay for agonists of the transient receptor potential channel ML3 (TRPML3). [Related pubchem assays: 1526, 1424, 1448 ]; format: functional
Ion channel NompC [7] = biological target: T3, Ion channel NompC (Danio rerio, UniProt Q7T1G6); assay: TRPML3 and TRPML2 channel agonists, cell-based, patch clamp, Fura-2 profiling panel, panel member TRPN1 Dose Response (AID 2116)
Ion channel NompC [8] = biological target: T3, Ion channel NompC; assay: Fluorescence counterscreen assay for TRPML3 agonists: dose response cell-based high-throughput screening assay to identify agonists of the transient receptor potential channel N1 (TRPN1). [Related pubchem assays: 1526, 1424, 1448 ]; format: functional
[9] = biological target: Mothers against decapentaplegic homolog 3 (Homo sapiens, UniProt P84022); assay: SMAD3 transcription factor inhibitors, dose response (AID 715); format: functional
[10] = biological target: T4, Heat shock 70 kDa protein 1A (Homo sapiens, UniProt P0DMV8); assay: Hsp70 inhibitors, biochemical, TR-FRET (AID 786)
Bcl-2-related protein A1 [11] = biological target: T5, Bcl-2-related protein A1 (Mus musculus, UniProt Q07440); assay: Bfl-1 inhibitors, primary screen, biochemical, fluorescence polarization, FITC-Bid, mouse (AID 432)
T5 sequence (Q07440 whole entry): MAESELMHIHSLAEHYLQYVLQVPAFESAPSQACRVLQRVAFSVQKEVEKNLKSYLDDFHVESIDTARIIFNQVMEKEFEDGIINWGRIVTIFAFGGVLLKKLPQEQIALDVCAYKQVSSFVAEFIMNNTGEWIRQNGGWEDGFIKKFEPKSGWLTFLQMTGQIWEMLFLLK

[12] = biological target: T4, Heat shock 70 kDa protein 1A; assay: Hsp70 inhibitors, probe displacement, primary screen, biochemical, fluorescence polarization (AID 583)
Bcl-2-like protein 10 [13] = biological target: T6, Bcl-2-like protein 10 (Homo sapiens, UniProt Q9HD36); assay: displacers of TR3 peptide from Bcl-B, primary screen, selectivity assay for Bfl-1 inhibitor project, biochemical, fluorescence polarization, FITC-TR3 peptide (AID 748);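 note: fluorescence polarization from a fluorescein-labelled TR3 peptide binding purified Bcl-B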
T6 sequence (Q9HD36 whole entry): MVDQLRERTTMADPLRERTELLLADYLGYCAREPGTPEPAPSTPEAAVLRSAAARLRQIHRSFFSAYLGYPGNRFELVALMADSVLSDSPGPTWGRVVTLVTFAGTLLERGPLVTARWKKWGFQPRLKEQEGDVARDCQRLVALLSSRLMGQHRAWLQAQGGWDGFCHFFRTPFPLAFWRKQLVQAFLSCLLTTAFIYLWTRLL

Estrogen receptor beta = Estrogen receptor beta (Homo sapiens, UniProt Q92731); assay: ERβ–SRC-3 coactivator interaction inhibitors, confirmation, orthogonal assay, biochemical, ELISA, streptavidin-HRP readout (AID 1060)
Bcl-2-related protein A1 [14] = biological target: T5, Bcl-2-related protein A1; assay: Bfl-1 inhibitors blocking BH3 peptide binding, confirmation, biochemical, TR-FRET, mouse Bfl-1 (AID 621);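 note: TR-FRET binding of GST-Bfl-1 to FITC-labelled Bid peptide via terbium antibody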
[15] = cytotoxicity in HEK-293T cells, dose response, cytotoxicity control for BCR NF-kB inhibitor project, luminescence, B-cell screen hits (AID 489021); format: functional, cell-based;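 note: HEK-293T cells carrying an NF-kB luciferase reporter; cells exposed to compound for about 14 hours before viability readout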
[16] = Luminescence-based counterscreen assay for KLF5 inhibitors: dose response cell-based high throughput screening assay to identify cytotoxic compounds using the IEC-6 intestinal epithelial cell line. [Related pubchem assays: 1700 (Primary screen.), 1834 (Confirmation screen.), 1858 (Summary AID.), 1905 (Counterscreen.)]; format: functional
Bcl-2-like protein 10 [17] = biological target: T6, Bcl-2-like protein 10; assay: Biochemical TR3 FP assay of Bcl-B inhibitor potency, EC50 (AID 1243); format: functional

T4 sequence (P0DMV8 whole entry): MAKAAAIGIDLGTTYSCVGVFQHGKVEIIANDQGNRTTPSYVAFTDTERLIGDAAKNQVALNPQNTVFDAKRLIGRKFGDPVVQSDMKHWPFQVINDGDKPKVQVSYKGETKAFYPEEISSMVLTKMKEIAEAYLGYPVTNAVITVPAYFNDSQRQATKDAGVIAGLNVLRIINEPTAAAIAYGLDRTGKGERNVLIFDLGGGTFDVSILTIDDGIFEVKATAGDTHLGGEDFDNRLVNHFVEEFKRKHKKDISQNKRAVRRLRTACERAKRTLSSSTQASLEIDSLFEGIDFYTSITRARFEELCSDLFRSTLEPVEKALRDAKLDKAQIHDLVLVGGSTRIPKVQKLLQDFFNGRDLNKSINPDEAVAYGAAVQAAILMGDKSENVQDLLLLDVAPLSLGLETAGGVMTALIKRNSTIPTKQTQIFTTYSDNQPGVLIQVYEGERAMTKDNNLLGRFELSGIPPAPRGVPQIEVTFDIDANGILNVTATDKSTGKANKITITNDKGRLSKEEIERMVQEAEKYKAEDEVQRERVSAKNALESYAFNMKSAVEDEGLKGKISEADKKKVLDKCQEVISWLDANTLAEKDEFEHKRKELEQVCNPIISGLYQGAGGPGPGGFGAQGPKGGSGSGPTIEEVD
T3 sequence (Q7T1G6 whole entry): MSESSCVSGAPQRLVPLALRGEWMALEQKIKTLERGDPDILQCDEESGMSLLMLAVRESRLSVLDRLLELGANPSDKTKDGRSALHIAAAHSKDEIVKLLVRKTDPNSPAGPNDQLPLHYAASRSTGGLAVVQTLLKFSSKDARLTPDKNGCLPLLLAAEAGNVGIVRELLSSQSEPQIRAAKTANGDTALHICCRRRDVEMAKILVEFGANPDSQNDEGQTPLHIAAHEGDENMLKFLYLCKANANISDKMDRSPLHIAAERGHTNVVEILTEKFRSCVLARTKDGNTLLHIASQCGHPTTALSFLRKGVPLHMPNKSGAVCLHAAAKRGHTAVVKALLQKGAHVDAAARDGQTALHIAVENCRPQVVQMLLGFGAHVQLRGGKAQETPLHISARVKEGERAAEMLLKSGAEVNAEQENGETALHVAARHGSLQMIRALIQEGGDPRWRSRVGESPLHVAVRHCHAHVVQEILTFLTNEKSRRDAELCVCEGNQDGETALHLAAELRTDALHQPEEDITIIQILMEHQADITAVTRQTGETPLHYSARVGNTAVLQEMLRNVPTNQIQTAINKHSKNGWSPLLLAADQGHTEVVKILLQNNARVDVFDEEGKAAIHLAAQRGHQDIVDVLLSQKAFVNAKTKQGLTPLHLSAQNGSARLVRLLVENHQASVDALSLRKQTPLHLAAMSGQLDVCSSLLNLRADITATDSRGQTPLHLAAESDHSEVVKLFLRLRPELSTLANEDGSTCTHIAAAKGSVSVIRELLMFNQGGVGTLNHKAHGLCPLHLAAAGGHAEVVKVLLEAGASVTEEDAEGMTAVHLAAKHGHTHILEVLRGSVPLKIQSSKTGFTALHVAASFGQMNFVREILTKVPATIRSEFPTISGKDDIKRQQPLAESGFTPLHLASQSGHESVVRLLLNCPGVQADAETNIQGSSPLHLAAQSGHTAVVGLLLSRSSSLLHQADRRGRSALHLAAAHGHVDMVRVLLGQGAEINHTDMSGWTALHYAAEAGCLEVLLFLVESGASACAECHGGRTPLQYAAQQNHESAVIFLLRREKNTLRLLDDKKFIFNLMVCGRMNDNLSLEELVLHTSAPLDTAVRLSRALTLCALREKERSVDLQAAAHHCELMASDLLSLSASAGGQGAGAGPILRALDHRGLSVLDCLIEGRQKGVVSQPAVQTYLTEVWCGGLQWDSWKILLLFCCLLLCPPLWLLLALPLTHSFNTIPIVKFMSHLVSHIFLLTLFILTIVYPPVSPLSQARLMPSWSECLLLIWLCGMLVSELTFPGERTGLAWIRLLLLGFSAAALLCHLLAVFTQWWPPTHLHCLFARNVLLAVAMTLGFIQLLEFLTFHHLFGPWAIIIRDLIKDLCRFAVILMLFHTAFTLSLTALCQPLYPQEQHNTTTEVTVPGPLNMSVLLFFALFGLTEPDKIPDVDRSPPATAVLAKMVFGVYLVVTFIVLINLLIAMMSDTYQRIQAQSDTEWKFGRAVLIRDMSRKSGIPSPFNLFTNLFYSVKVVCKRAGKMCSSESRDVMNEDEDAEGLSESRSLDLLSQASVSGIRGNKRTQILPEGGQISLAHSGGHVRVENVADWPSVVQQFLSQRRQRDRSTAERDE
RNA-editing ligase 1, mitochondrial, sequence (P86926 whole entry): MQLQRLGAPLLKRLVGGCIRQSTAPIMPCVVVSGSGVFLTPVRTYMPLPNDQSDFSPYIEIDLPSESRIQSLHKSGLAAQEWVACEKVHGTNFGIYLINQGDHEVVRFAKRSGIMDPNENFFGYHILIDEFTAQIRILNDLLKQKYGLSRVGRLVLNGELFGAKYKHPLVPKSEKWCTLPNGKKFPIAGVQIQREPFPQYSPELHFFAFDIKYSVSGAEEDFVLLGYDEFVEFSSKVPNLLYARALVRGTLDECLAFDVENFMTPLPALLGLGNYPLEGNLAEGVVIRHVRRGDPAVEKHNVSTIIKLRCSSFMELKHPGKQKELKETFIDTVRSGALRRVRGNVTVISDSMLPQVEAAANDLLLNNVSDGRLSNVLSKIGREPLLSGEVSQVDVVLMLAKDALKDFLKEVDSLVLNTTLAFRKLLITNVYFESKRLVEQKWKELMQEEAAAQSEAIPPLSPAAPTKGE
Neurotensin receptor type 1, sequence (P30989 whole entry): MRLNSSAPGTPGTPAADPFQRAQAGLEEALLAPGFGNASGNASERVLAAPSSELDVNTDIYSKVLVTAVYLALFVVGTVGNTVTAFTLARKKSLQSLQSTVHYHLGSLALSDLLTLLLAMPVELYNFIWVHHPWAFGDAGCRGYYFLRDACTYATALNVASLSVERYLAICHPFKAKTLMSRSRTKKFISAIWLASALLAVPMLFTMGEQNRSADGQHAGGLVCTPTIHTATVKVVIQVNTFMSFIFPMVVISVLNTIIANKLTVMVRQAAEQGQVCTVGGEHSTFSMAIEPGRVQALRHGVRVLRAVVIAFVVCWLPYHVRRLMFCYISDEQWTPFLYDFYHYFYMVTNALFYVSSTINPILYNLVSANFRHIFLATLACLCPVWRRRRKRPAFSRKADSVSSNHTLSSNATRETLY
Mothers against decapentaplegic homolog 3, sequence (P84022 whole entry): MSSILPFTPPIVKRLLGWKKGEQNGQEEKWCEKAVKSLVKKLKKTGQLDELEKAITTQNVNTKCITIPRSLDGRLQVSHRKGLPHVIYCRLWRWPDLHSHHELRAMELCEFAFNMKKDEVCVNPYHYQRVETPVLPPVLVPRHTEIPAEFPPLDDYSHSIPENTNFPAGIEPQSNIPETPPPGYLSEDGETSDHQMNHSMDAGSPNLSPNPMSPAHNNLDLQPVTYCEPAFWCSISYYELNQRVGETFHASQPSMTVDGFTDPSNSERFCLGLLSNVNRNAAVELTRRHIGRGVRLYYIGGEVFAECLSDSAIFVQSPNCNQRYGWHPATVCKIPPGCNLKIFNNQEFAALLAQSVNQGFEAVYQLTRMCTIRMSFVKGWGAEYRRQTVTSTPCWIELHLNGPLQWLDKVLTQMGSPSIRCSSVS
Estrogen receptor beta, sequence (Q92731 whole entry): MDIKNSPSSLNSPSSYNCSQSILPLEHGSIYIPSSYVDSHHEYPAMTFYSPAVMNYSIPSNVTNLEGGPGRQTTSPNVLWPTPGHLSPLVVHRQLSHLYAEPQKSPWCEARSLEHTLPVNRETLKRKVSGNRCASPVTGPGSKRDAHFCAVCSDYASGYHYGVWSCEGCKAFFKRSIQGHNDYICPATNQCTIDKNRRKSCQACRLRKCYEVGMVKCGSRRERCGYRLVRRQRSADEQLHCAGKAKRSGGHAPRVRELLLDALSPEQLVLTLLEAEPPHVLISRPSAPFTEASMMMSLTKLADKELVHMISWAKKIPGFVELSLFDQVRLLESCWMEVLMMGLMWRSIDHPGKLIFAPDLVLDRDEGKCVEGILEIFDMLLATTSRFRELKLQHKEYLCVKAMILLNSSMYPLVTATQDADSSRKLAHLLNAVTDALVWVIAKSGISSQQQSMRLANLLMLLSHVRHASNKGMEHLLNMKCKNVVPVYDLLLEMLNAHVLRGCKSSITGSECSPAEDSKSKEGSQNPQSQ
Melanin-concentrating hormone receptor 1, sequence (Q99705 whole entry): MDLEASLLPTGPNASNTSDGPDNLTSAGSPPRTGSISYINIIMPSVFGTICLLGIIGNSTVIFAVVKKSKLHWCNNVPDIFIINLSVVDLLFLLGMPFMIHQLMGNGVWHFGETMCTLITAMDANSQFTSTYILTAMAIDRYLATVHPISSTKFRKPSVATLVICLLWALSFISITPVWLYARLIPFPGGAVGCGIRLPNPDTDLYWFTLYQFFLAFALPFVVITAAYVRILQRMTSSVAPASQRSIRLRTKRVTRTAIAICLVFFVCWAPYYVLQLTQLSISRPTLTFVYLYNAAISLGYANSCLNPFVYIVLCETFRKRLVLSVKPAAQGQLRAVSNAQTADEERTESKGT

CC(C)Cn1c(N)c(C(=O)CSc2cc(Cl)ccc2Cl)c(=O)n(C)c1=O
EC50 [1]: 16.5 µM (active)

Cc1ccc(N(C(=O)c2ccn[nH]2)C(C(=O)NC2CCCC2)c2cccs2)cc1 (stereo not drawn)
EC50 [2]: > 100 µM (not active)

COCCNC1=N[C@@H](c2cccc(C(F)(F)F)c2)C(C(=O)OC)=C(C)N1Cc1ccccc1
IC50 [3]: 14.7 µM (not active) | IC50 [4]: > 96.6 µM (inactive)

Cc1ccc(Cl)cc1N1CCN(S(=O)(=O)N2CCCCC2)CC1
EC50 (Mucolipin-3 [5]): 3.46 µM (active) | EC50 (Mucolipin-3 [6]): 1.84 µM (active) | EC50 (Ion channel NompC [7]): > 29.9 µM (inactive) | EC50 (Ion channel NompC [8]): > 29.9 µM (not active)

COc1cccc(C(=O)NC2CC3CCCC(C2)N3CC(=O)Nc2ccccc2)c1 (stereo not drawn)
IC50 [9]: 9.46 µM (active) | IC50 [10]: 11.4 µM (active) | IC50 (Bcl-2-related protein A1 [11]): > 100 µM (not active) | IC50 [12]: 45.4 µM (active) | IC50 (Bcl-2-like protein 10 [13]): 73.6 µM (inactive) | IC50 (Estrogen receptor beta): 44.6 µM (not active) | IC50 (Bcl-2-related protein A1 [14]): > 100 µM (not active)

Cc1ccc(/C=C2/SC(=S)N(CCCC(=O)Nc3ccc(O)cc3)C2=O)cc1
IC50 [15]: > 80 µM (inactive) | IC50 [16]: 14.1 µM (not active)

OC1=c2ccccc2=C(O)C12N=Nc1nnc(S)n1N2
EC50 (Bcl-2-like protein 10 [17]): 23.8 µM (active)

Reference: ChEMBL document CHEMBL1201862, “PubChem BioAssay data set” (2004)
